Our source for the IC50 values is ChEMBL document CHEMBL1130832, “5-Alkyl-2-[(methylthiomethyl)thio]-6-(benzyl)-pyrimidin-4-(1H)-ones as potent non-nucleoside reverse transcriptase inhibitors of S-DABO series” (Bioorg Med Chem Lett, 1998).

In assay [1] the target is Human immunodeficiency virus type 1 reverse transcriptase (Human immunodeficiency virus 1, UniProt Q72547). The assay can be described thus: Compound was evaluated for enzymatic inhibitory activity against recombinant HIV reverse transcriptase.
The nature of assay [2]: Compound was evaluated for cytotoxic activity against peripheral blood mononuclear cells using microculture tetrazolium assay. It counts as functional. The settings on record: Homo sapiens.
The nature of assay [3]: Compound was evaluated for inhibition of p24 production in HIV infected peripheral blood mononuclear cells. Format: functional. The following applies: Homo sapiens.

Regarding `Cc1cn([C@H]2C[C@H](N=[N+]=[N-])[C@@H](CO)O2)c(=O)[nH]c1=O` [ZIDOVUDINE], the IC50 (usually the concentration that gives 50% inhibition) is over 100 µM in assay [1], 100 µM in assay [2] and 4 nM in assay [3].
The like results for `CCc1c(O)nc(SCSC)nc1Cc1ccccc1` were, in that order, 9.7 µM, over 100 µM and 800 nM.
The like results for `CSCSc1nc(O)c(C(C)C)c(Cc2cc(C)cc(C)c2)n1` were, in that order, 4.8 µM, over 100 µM and 10 nM.
Take `CSCSc1nc(O)c(C(C)C)c(Cc2ccccc2)n1`: the values for the concentration for half-maximal inhibition (IC50) in assay [1], in assay [2] and in assay [3] were 6.1 µM, over 100 µM and under 1 nM, respectively.
In the case of `CSCSc1nc(O)c(C)c(Cc2ccccc2)n1`, the half-maximal inhibitory concentration (IC50) is 18.8 µM in assay [1], over 100 µM in assay [2] and 4500 nM in assay [3].
Consider `CCOCn1c(Cc2ccccc2)c(C(C)C)c(=O)[nH]c1=O` [EMIVIRINE], for which, in assay [2], the IC50 is over 100 µM.
